Consider 23 molecules from US9862676B2, “Hydroxamic acid derivative or salt thereof” (TOYAMA CHEMICAL CO., LTD., priority 2013, dated 2018).

Holding throughout (type): cell-based
Series [1] deals with Pseudomonas aeruginosa ATCC27853 strain. The series can be described thus: Antibacterial activity, MIC by broth microdilution (CLSI). As to the method:
(§1) The minimum inhibitory concentration (MIC) was measured according to the CLSI (Clinical and Laboratory Standards Institute) standard method using a broth microdilution method given below. The bacteria used were a Pseudomonas aeruginosa ATCC27853 strain, an Escherichia coli ATCC25922 strain and a Klebsiella pneumoniae ATCC13883 strain. Test bacterial cells of each strain cultured overnight in a Mueller-Hinton agar medium were scraped off and suspended at the McFarland 0.5 standard, and this suspension was diluted 10-fold to prepare an inoculum solution. The inoculum solution (0.005 mL) was inoculated to a cation-adjusted Mueller-Hinton medium containing each test compound and cultured at 35° C. for 16 to 20 hours. The minimum drug concentration at which bacterial growth was not visible to the naked eye was defined as MIC.
On the technique in general: Broth dilution looks for growth in wells or tubes with falling amounts of substance.

A short description of series [2]: Test on inhibition of Vero cell growth (XTT). The settings on record: African green monkey, Vero cells, 3 days culture, read-out: CC50 (concentration inhibiting 50% of cell growth). Here is the method: Each test compound was dissolved in dimethyl sulfoxide, adjusted to each concentration using E'MEM, and then dispensed at 0.1 mL/well to 96-well microplates. The Vero cell suspension was prepared at 3×10^4 cells/mL using E'MEM supplemented with 20% FBS, inoculated thereto at 0.1 mL/well, and cultured at 37° C. for 3 days under 5% CO2. At the completion of the culture, PBS supplemented with 1 mg/mL 2,3-bis-(2-methoxy-4-nitro-5-sulfophenyl)-5-((phenylamino)carbonyl)-2H-tetrazolium inner salt monosodium salt (XTT) and 25 μM phenazine methosulfate (PMS) was prepared and added thereto at 50 μL/well. Approximately 2 hours later, the absorbance at 450 nm was measured using a microplate reader.

The subject of series [3] is Escherichia coli ATCC25922 strain. The series can be described thus: Antibacterial activity, MIC by broth microdilution (CLSI). As to the method:
as §1

In series [4] the test system is Klebsiella pneumoniae ATCC13883 strain. Described as above. Here is the method:
as §1

In brackets after ≈: the same amount, converted by molar mass.

What is called MIC is the smallest concentration in the dilution series that meets the test's criterion for growth inhibition. High values mean a need for much substance, low ones inhibition by little substance. With `CNC(=O)[C@@](C)(C(=O)NO)N(C)C(=O)c1ccc(C#Cc2ccc(COCC(O)CO)cc2)cc1` (stereo partly drawn) [Example 2, (2S)-2-((4-((4-((2,3-dihydroxypropoxy)methyl)phenyl)ethynyl)benzoyl)(methyl)amino)-N-hydroxy-N′,2-dimethylmalonamide], inhibition of growth in series [1] (MIC) required 1 µg/mL (≈ 2.07 µM). In series [2], the CC50 at 3 days is at least 100 µg/mL.

On to `CNC(=O)[C@@](C)(C(=O)NO)N(C)C(=O)c1ccc(C#Cc2ccc(COCCOC(C)=O)cc2)cc1` [Example 4, 2-((4-((4-((((1S)-2-(hydroxyamino)-1-methyl-1-((methylamino)carbonyl)-2-oxoethyl)(methyl)amino)carbonyl)phenyl)ethynyl)benzyl)oxy)ethyl acetate], for which the minimum inhibitory concentration (MIC) was 0.25 µg/mL in series [3] and 0.5 µg/mL in series [4]. Also, the CC50 at 3 days in series [2] is at least 100 µg/mL.

With `CNC(=O)[C@@](C)(C(=O)NO)N(C)C(=O)c1ccc(C#Cc2ccc(COC(CO)CO)cc2)cc1` [Example 5, (2S)—N-hydroxy-2-((4-((4-((2-hydroxy-1-(hydroxymethyl)ethoxy)methyl)phenyl)ethynyl)benzoyl)(methyl)amino)-N′,2-dimethylmalonamide], the CC50 at 3 days in series [2] was at least 100 µg/mL.

For the molecule `CNC(=O)[C@@](C)(C(=O)NO)N(C)C(=O)c1ccc(C#Cc2ccc(C(CO)CO)cc2)cc1` [Example 6, (2S)—N-hydroxy-2-((4-((4-(2-hydroxy-1-(hydroxymethyl)ethyl)phenyl)ethynyl)benzoyl)(methyl)amino)-N′,2-dimethyl-malonamide], in series [2], the CC50 at 3 days is at least 100 µg/mL.

`CNC(=O)[C@@](C)(C(=O)NO)N(C)C(=O)c1ccc(C#Cc2ccc(COCC(C)(C)O)cc2)cc1` [Example 7, (2S)—N-hydroxy-2-((4-((4-((2-hydroxy-2-methylpropoxy)methyl)phenyl)ethynyl)benzoyl)(methyl)amino)-N′,2-dimethyl-malonamide]: the figures for the MIC in series [3], in series [4] and in series [1] were 0.25 µg/mL (≈ 0.519 µM), 0.5 µg/mL (≈ 1.04 µM) and 1 µg/mL (≈ 2.08 µM), respectively. For the same molecule, the CC50 at 3 days in series [2] was at least 100 µg/mL.

`CNC(=O)[C@@](C)(C(=O)NO)N(C)C(=O)c1ccc(C#Cc2ccc(CO[C@@H](C)CO)cc2)cc1` [Example 8, (2S)—N-hydroxy-2-((4-((4-(((1S)-2-hydroxy-1-methylethoxy)methyl)phenyl)ethynyl)benzoyl)(methyl)amino)-N′,2-dimethylmalonamide]: the MIC in series [3] came to 0.25 µg/mL (≈ 0.535 µM); in series [4], 1 µg/mL (≈ 2.14 µM); in series [1], 1 µg/mL (≈ 2.14 µM). For the same molecule, in series [2], the CC50 at 3 days was at least 100 µg/mL.

The molecule `CNC(=O)[C@@](C)(C(=O)NO)N(C)C(=O)c1ccc(C#Cc2ccc(C(CO)OC)cc2)cc1` (stereo partly drawn) [Example 9, (2S)—N-hydroxy-2-((4-((4-(2-hydroxy-1-methoxyethyl)phenyl)ethynyl)benzoyl)(methyl)amino)-N′,2-dimethyl-malonamide] came in with an MIC in series [3] of 0.5 µg/mL (≈ 1.1 µM). Moreover, the CC50 at 3 days in series [2] was at least 100 µg/mL.

In the case of `CNC(=O)[C@@](C)(C(=O)NO)N(C)C(=O)c1ccc(C#Cc2ccc(CO[C@H](C)CO)cc2)cc1` [Example 10, (2S)—N-hydroxy-2-((4-((4-(((1R)-2-hydroxy-1-methylethoxy)methyl)phenyl)ethynyl)benzoyl)(methyl)amino)-N′,2-dimethyl-malonamide], the values for the MIC in series [3], in series [4] and in series [1] were 0.25 µg/mL (≈ 0.535 µM), 0.5 µg/mL (≈ 1.07 µM) and 1 µg/mL (≈ 2.14 µM), respectively. Besides, in series [2], the CC50 at 3 days was at least 100 µg/mL.

As to `CNC(=O)[C@@](C)(C(=O)NO)N(C)C(=O)c1ccc(C#Cc2ccc(COC3COC3)cc2)cc1` [Example 11, (2S)—N-hydroxy-N′,2-dimethyl-2-(methyl(4-((4-((oxetan-3-yloxy)methyl)phenyl)ethynyl)benzoyl)amino)malonamide], the minimal inhibitory concentration (MIC) in series [3] was 0.0625 µg/mL (≈ 0.134 µM); in series [4] it was 0.5 µg/mL (≈ 1.07 µM).

On to `CNC(=O)[C@@](C)(C(=O)NO)N(C)C(=O)c1ccc(C#Cc2ccc(/C=C/COC)cc2)cc1` [Example 12, (2S)—N-hydroxy-2-((4-((4-((1E)-3-methoxy-1-propen-1-yl)phenyl)ethynyl)benzoyl)(methyl)amino)-N′,2-dimethyl-malonamide], for which the MIC in series [3] came out at 0.0625 µg/mL (≈ 0.139 µM); in series [4] it was 0.125 µg/mL (≈ 0.278 µM); in series [1], 1 µg/mL (≈ 2.22 µM).

`CNC(=O)[C@@](C)(C(=O)NO)N(C)C(=O)c1ccc(C#Cc2ccc(CC(O)CO)cc2)cc1` (stereo partly drawn) [Example 15, (2S)-2-((4-((4-(2,3-dihydroxypropyl)phenyl)ethynyl)benzoyl)(methyl)amino)-N-hydroxy-N′,2-dimethylmalonamide] gave an MIC in series [1] of 1 µg/mL (≈ 2.21 µM).

The molecule `CNC(=O)[C@@](C)(C(=O)NO)N(C)C(=O)c1ccc(C#Cc2ccc(CC(CO)CO)cc2)cc1` [Example 18, (2S)—N-hydroxy-2-((4-((4-(3-hydroxy-2-(hydroxymethyl)propyl)phenyl)ethynyl)benzoyl)(methyl)amino)-N′,2-dimethyl-malonamide] came in with a minimum inhibitory concentration (MIC) in series [1] of 1 µg/mL (≈ 2.14 µM).

`CNC(=O)[C@@](C)(C(=O)NO)N(C)C(=O)c1ccc(C#Cc2ccc(C(C)OCCO)cc2)cc1` (stereo partly drawn) [Example 21, (2S)—N-hydroxy-2-((4-((4-(1-(2-hydroxyethoxy)ethyl)phenyl)ethynyl)benzoyl)(methyl)amino)-N′,2-dimethyl-malonamide]: the MIC in series [3] was found to be 0.5 µg/mL (≈ 1.07 µM).

Take `CNC(=O)[C@@](C)(C(=O)NO)N(C)C(=O)c1ccc(C#Cc2ccc(C(O)COCCO)cc2)cc1` (stereo partly drawn) [Example 22, (2S)—N-hydroxy-2-((4-((4-(1-hydroxy-2-(2-hydroxyethoxy)ethyl)phenyl)ethynyl)benzoyl)(methyl)amino)-N′,2-dimethyl-malonamide]: it took 1 µg/mL (≈ 2.07 µM) to inhibit growth in series [1] (MIC). Moreover, in series [2], the CC50 at 3 days was at least 100 µg/mL.

Turning to `CNC(=O)[C@@](C)(C(=O)NO)N(C)C(=O)c1ccc(C#Cc2ccc([C@@H](O)CO)c(F)c2)cc1` [Example 26, (2S)-2-((4-((4-(1,2-dihydroxyethyl)-3-fluorophenyl)ethynyl)benzoyl)(methyl)amino)-N-hydroxy-N′,2-dimethyl-malonamide], in series [1], the MIC was 1 µg/mL (≈ 2.19 µM).

In the case of `CNC(=O)[C@@](C)(C(=O)NO)N(C)C(=O)c1ccc(C#Cc2ccc(C(O)COCCO)c(F)c2)cc1` (stereo partly drawn) [Example 27, (2S)-2-((4-((3-fluoro-4-(1-hydroxy-2-(2-hydroxyethoxy)ethyl)phenyl)ethynyl)benzoyl)(methyl)amino)-N-hydroxy-N′,2-dimethylmalonamide], 1 µg/mL (≈ 1.99 µM) was the least that counted as inhibitory in series [1] (MIC).

The molecule `CNC(=O)[C@@](C)(C(=O)NO)N(C)C(=O)c1ccc(C#Cc2ccc([C@H](O)COCCCO)cc2)cc1` [Example 28, (2S)—N-hydroxy-2-((4-((4-((1S)-1-hydroxy-2-(3-hydroxypropoxy)ethyl)phenyl)ethynyl)benzoyl)(methyl)amino)-N′,2-dimethyl-malonamide] registered an MIC in series [3] of 0.5 µg/mL (≈ 1 µM). Further, the CC50 at 3 days in series [2] was at least 100 µg/mL.

`CCOC[C@@H](O)c1ccc(C#Cc2ccc(C(=O)N(C)[C@@](C)(C(=O)NC)C(=O)NO)cc2)cc1` [Example 29, (2S)-2-((4-((4-((1S)-2-ethoxy-1-hydroxyethyl)phenyl)ethynyl)benzoyl)(methyl)amino)-N-hydroxy-N′,2-dimethyl-malonamide]: the MIC amounted to 0.125 µg/mL (≈ 0.267 µM) in series [3] and 0.5 µg/mL (≈ 1.07 µM) in series [4]. For the same molecule, in series [2], the CC50 at 3 days is at least 100 µg/mL.

On to `CNC(=O)[C@@](C)(C(=O)NO)N(C)C(=O)c1ccc(C#Cc2ccc([C@@H](O)COC)cc2)cc1` [Example 31, (2S)—N-hydroxy-2-((4-((4-((1R)-1-hydroxy-2-methoxyethyl)phenyl)ethynyl)benzoyl)(methyl)amino)-N′,2-dimethyl-malonamide], for which the MIC was 0.5 µg/mL (≈ 1.1 µM) in series [3] and 1 µg/mL (≈ 2.21 µM) in series [4]. In series [2], the CC50 at 3 days was at least 100 µg/mL.

Regarding `CNC(=O)[C@@](C)(C(=O)NO)N(C)C(=O)c1ccc(C#Cc2ccc([C@@H](O)CCO)cc2)cc1` [Example 32, (2S)-2-((4-((4-((1S)-1,3-dihydroxypropyl)phenyl)ethynyl)benzoyl)(methyl)amino)-N-hydroxy-N′,2-dimethyl-malonamide], the results for the MIC in series [3] and in series [1] were 0.5 µg/mL (≈ 1.1 µM) and 1 µg/mL (≈ 2.21 µM), respectively.

Consider `CNC(=O)[C@@](C)(C(=O)NO)N(C)C(=O)c1ccc(C#Cc2ccc([C@H](O)[C@@H](C)O)cc2)cc1` [Example 34, (2S)-2-((4-((4-((1S,2R)-1,2-dihydroxypropyl)phenyl)ethynyl)benzoyl)(methyl)amino)-N-hydroxy-N′,2-dimethyl-malonamide], for which the MIC in series [3] came to 0.5 µg/mL (≈ 1.1 µM); in series [1], 1 µg/mL (≈ 2.21 µM). Further, in series [2], the CC50 at 3 days is at least 100 µg/mL.

With `CNC(=O)[C@@](C)(C(=O)NO)N(C)C(=O)c1ccc(C#Cc2ccc([C@@H](C)O)cc2)cc1` [Example 37, (2S)—N-hydroxy-2-((4-((4-((1R)-1-hydroxyethyl)phenyl)ethynyl)benzoyl)(methyl)amino)-N′,2-dimethyl-malonamide], the MIC in series [3] worked out at 0.125 µg/mL (≈ 0.295 µM); in series [4], 0.5 µg/mL (≈ 1.18 µM); in series [1] it was 1 µg/mL (≈ 2.36 µM).

The molecule `CNC(=O)[C@@](C)(C(=O)NO)N(C)C(=O)c1ccc(C#Cc2ccc([C@H](C)O)cc2)cc1` [Example 38, (2S)—N-hydroxy-2-((4-((4-((1S)-1-hydroxyethyl)phenyl)ethynyl)benzoyl)(methyl)amino)-N′,2-dimethyl-malonamide] displayed a minimal inhibitory concentration (MIC) in series [3] of 0.25 µg/mL (≈ 0.59 µM).
